Measured values from patent US20230233555A1 (AbbVie Inc., priority 2022, published 2023).
“Also recorded” adds a separate entry of the source.

Columns and labels:
[1] = target: CYP2D6 (Homo sapiens, UniProt P10635); assay: In vitro metabolism / substrate assessment, CYP2D6; assay type: in vitro ADME
[2] = test system: P-gp, BCRP; assay: In vitro transporter substrate assessment, P-gp and BCRP; assay type: in vitro ADME
[3] = Human radiolabeled [14C]-upadacitinib study (metabolism and excretion); assay type: in vivo
[4] = Renal impairment pharmacokinetic study (Study M13-551); assay type: in vivo, human
Procedure: Renal clearance indicates some involvement of renal transporters in the excretion. Renal secretion is however not estimated to contribute to more than 25% of the elimination. […] As used herein, reference to “severe renal impairment” means a creatinine clearance of less than 30 mL/min.
This may increase the risk of adverse reactions; therefore, dosage modification in patients with severe renal impairment is recommended.

[5] = Hepatic impairment pharmacokinetic study; assay type: in vivo, human
[6] = Solubility in water; assay type: physicochemical; conditions: aqueous buffer, pH range of 2 to 9 at 37° C.
From the text: The strength of upadacitinib is based on anhydrous upadacitinib. […]

[7] = test system: Sprague-Dawley rats; assay: Carcinogenicity study in Sprague-Dawley rats; assay type: in vivo, rat; conditions: for Exposure multiple at top dose without tumorigenicity: AUC basis
[8] = test system: Tg.rasH2 mice; assay: Carcinogenicity study in Tg.rasH2 mice; assay type: in vivo, mouse; conditions: 26 weeks, oral up to 20 mg/kg/day
[9] = test system: rat bone marrow; assay: In vivo rat bone marrow micronucleus assay
[10] = test system: male and female rats; assay: Fertility study in rats; assay type: in vivo, rat
[11] = test system: patients with moderately to severely active rheumatoid arthritis, naive to MTX; assay: Trial RA-I (NCT02706873); assay type: in vivo, human; conditions: RA-I through Week 24; 30 mg
Procedure: The primary endpoint was the proportion of patients who achieved an ACR50 response at Week 12. Key secondary endpoints included disease activity score (DAS28-CRP) ≤3.2 at Week 12, DAS28-CRP <2.6 at Week 24, change from baseline in HAQ-DI at Week 12, and change from baseline in van der Heijde-modified total Sharp Score (mTSS) at Week 24.
Inhibition of progression of structural joint damage was assessed using the modified Total Sharp Score (mTSS) and its components, the erosion score and joint space narrowing score, at Week 26 in Trial RA-IV and Week 24 in Trial RA-I. The proportion of patients with no radiographic progression (mTSS change from baseline […]) was also assessed.

[12] = Model-estimated and predicted upadacitinib Cmax and AUCss in UC patients with co-administration of strong CYP3A4 inhibitors; set-up: species or system human; conditions: for Predicted Median Cmax in UC Patients with Strong CYP3A4 inhibitors based on results from M13-401: model-estimated value multiplied by 1.7; for Predicted AUCss in UC Patients with Strong CYP3A4 inhibitors based on results from M13-401, Median: model-estimated value multiplied by 1.75
From the text: The data from Study M13-401 are provided in Table 38 and Table 39, which show the expected increase in Cmax and AUCss, respectively, in patients with UC across all dose levels with co-administration of CYP3A4 inhibitors.

[13] = test system: patients with rheumatoid arthritis; conditions: in vivo
From the text: Exposure adjusted incidence rates were adjusted by trial for all the adverse events reported in this section.
Patients 18 years of age and older were eligible to participate. The presence of at least 6 tender and 6 swollen joints and evidence of systemic inflammation based on elevation of hsCRP was required at baseline.

Sequence of CYP2D6 (P10635 whole entry): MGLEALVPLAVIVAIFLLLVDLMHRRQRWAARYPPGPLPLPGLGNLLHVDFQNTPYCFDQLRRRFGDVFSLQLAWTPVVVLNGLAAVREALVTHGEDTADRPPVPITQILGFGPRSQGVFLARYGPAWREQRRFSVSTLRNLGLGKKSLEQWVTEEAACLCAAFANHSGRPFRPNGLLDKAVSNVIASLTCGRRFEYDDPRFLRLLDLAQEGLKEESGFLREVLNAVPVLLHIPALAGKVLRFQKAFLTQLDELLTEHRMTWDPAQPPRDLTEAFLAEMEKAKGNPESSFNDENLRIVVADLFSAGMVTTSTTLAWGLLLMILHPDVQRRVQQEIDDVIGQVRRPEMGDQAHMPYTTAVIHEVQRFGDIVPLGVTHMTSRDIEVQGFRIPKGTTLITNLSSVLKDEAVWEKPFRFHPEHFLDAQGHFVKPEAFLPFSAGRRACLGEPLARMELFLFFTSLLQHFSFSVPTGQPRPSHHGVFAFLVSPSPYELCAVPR

## CC[C@@H]1CN(C(=O)NCC(F)(F)F)C[C@@H]1c1cnc2cnc3[nH]ccc3n12 [upadacitinib, (3S,4R)-3-Ethyl-4-(3H-imidazo[1,2-a]pyrrolo[2,3-e]pyrazin-8-yl)-N-(2,2,2-trifluoroethyl)pyrrolidine-1-carboxamide hydrate (2:1)]
[1]
  Substrate of / metabolised by CYP2D6: substrate; also recorded: potential minor contribution from CYP2D6
[2]
  Substrate of P-gp and BCRP: substrate
[3]; human radiolabeled study
  Unchanged upadacitinib share of total radioactivity in plasma: 79%
[3]; in vivo
  Active metabolites: No active metabolites
[4]; in vivo
  Cmax, impaired vs normal renal function: similar
  Contribution of the renal route to elimination: approximately 25%
[4]; mild renal impairment
  AUCinf higher vs normal renal function: 18%
[4]; moderate renal impairment
  AUCinf higher vs normal renal function: 33%
[4]; severe renal impairment
  AUCinf higher vs normal renal function: 44%
[4]; severe renal impairment, Study M13-551
  Cmax higher vs normal renal function: 14%
[5]; mild hepatic impairment
  Cmax vs normal liver function: unchanged
[5]; mild hepatic impairment (Child-Pugh A)
  AUC (AUCinf) higher vs normal hepatic function: 28%
[5]; moderate hepatic impairment
  Cmax higher vs normal liver function: 43%
[5]; moderate hepatic impairment (Child-Pugh B)
  AUC (AUCinf) higher vs normal hepatic function: 24%
[6]
  solubility: ≤ 38 mg/mL
[7]; female rats, 20 mg/kg/day
  Exposure multiple at top dose without tumorigenicity: ~6.0 times the MRHD of 30 mg
[7]; male rats, 15 mg/kg/day
  Exposure multiple at top dose without tumorigenicity: approximately 2.4 times the MRHD of 30 mg
[7]; up to 101 weeks, oral up to 15 (male) or 20 (female) mg/kg/day
  Tumorigenicity: No evidence of tumorigenicity
[8]
  Tumorigenicity: No evidence of tumorigenicity
[9]
  Genotoxicity, bone marrow micronucleus: tested negatively
[10]; 5 mg/kg/day, AUC basis
  Exposure multiple with viable embryos unaffected: approximately 1.0 times the MRHD of 30 mg
[10]; 25 mg/kg/day, AUC basis
  Exposure multiple with adverse effect on maintenance of pregnancy: approximately 13 times the MRHD of 30 mg
[10]; 75 mg/kg/day, AUC basis
  Exposure multiple with adverse effect on maintenance of pregnancy: ~48 times the MRHD of 30 mg
[10]; female rats, 75 mg/kg/day, AUC basis
  Exposure multiple without effect on fertility: ~48 times the MRHD of 30 mg
[10]; females 5 mg/kg/day mated to males at the same dose
  Number of viable embryos: unaffected
[10]; male rats, 50 mg/kg/day, AUC basis
  Exposure multiple without effect on fertility: approximately 24 times the MRHD of 30 mg
[10]; oral 25 and 75 mg/kg/day
  Maintenance of pregnancy (post-implantation losses, viable embryos per litter): adversely affected
[10]; oral up to 50 mg/kg/day males, 75 mg/kg/day females
  Fertility: no effect on fertility
[11]
  Arterial thrombosis, number of patients: 1 patient
  Venous thrombosis, number of patients: 1 patient
[12]; 7.5 mg treatment group
  Predicted Median Cmax in UC Patients with Strong CYP3A4 inhibitors based on results from M13-401: 34.3 ng/mL
  Predicted AUCss in UC Patients with Strong CYP3A4 inhibitors based on results from M13-401, Median: 282 ng·h/mL
[12]; 15 mg treatment group
  Predicted Median Cmax in UC Patients with Strong CYP3A4 inhibitors based on results from M13-401: 70.2 ng/mL
  Predicted AUCss in UC Patients with Strong CYP3A4 inhibitors based on results from M13-401, Median: 599 ng·h/mL
[12]; 30 mg treatment group
  Predicted Median Cmax in UC Patients with Strong CYP3A4 inhibitors based on results from M13-401: 133 ng/mL
  Predicted AUCss in UC Patients with Strong CYP3A4 inhibitors based on results from M13-401, Median: 1143 ng·h/mL
[12]; 45 mg treatment group
  Predicted Median Cmax in UC Patients with Strong CYP3A4 inhibitors based on results from M13-401: 206 ng/mL
  Predicted AUCss in UC Patients with Strong CYP3A4 inhibitors based on results from M13-401, Median: 1740 ng·h/mL
[13]
  Hemoglobin decreases below 8 g/dL in at least one measurement, patients: none
  Lipid changes with treatment: dose-related increases in total cholesterol, triglycerides and LDL cholesterol
  Time of peak elevations in LDL and HDL cholesterol: ≤ 8 Week
